From ChEMBL document CHEMBL4130611, “Serpulanines A to C, N-Oxidized Tyrosine Derivatives Isolated from the Sri Lankan Fungus Serpula sp.: Structure Elucidation, Synthesis, and Histone Deacetylase Inhibition” (J Nat Prod, 2018)
Activity calls are given as the source filed them. The rule behind the calls is not given here.

What was measured:
[1] = target: Histone deacetylase 9 (Homo sapiens) (UniProt Q9UKV0); assay: Inhibition of human HDAC9 at 330 uM by HDAC-Glo1/2 luminescent assay
[2] = target: T1, Protein deacetylase HDAC6 (Homo sapiens) (UniProt Q9UBN7); assay: Inhibition of human HDAC6 at 330 uM by HDAC-Glo1/2 luminescent assay relative to control
T1 sequence (whole entry): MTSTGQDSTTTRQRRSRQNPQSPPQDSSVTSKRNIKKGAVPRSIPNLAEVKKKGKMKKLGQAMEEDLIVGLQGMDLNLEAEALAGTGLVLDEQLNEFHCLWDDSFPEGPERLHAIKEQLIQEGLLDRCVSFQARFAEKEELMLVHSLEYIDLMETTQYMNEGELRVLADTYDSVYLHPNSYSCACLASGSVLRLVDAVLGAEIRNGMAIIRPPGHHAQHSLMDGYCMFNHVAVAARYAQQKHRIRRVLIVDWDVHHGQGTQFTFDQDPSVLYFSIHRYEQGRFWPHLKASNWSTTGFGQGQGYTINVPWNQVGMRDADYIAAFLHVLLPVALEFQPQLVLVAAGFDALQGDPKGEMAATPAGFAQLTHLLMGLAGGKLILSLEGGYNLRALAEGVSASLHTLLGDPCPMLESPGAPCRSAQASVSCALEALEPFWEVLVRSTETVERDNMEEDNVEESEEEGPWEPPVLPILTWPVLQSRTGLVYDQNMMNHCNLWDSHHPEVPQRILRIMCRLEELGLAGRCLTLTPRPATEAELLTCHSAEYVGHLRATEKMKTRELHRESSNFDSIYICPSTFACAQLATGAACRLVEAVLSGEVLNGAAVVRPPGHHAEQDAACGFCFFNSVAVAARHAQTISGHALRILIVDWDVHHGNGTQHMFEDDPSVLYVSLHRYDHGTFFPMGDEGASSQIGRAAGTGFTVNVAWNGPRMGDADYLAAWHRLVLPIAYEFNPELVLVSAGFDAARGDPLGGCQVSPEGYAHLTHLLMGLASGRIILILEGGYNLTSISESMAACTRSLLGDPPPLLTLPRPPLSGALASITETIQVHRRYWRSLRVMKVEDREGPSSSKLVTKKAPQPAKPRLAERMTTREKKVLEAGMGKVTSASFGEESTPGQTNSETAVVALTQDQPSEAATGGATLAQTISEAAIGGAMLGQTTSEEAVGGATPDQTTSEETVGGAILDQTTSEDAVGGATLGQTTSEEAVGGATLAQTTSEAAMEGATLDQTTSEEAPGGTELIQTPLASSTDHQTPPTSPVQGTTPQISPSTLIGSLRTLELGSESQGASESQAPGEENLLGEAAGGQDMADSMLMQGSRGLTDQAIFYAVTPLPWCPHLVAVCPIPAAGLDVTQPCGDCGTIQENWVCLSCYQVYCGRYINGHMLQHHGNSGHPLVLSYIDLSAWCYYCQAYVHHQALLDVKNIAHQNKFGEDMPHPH

[3] = (§1) Inhibition of class 1 HDAC in mouse A9 cells after 30 mins by luminescent assay; format: cell-based
[4] = test system: A9; assay: as §1; format: cell-based
[5] = (§2) Inhibition of class 2 HDAC in mouse A9 cells after 30 mins by luminescent assay; format: cell-based
[6] = test system: A9; assay: as §2; format: cell-based

Sequence of Histone deacetylase 9 (Homo sapiens) (Q9UKV0 whole entry): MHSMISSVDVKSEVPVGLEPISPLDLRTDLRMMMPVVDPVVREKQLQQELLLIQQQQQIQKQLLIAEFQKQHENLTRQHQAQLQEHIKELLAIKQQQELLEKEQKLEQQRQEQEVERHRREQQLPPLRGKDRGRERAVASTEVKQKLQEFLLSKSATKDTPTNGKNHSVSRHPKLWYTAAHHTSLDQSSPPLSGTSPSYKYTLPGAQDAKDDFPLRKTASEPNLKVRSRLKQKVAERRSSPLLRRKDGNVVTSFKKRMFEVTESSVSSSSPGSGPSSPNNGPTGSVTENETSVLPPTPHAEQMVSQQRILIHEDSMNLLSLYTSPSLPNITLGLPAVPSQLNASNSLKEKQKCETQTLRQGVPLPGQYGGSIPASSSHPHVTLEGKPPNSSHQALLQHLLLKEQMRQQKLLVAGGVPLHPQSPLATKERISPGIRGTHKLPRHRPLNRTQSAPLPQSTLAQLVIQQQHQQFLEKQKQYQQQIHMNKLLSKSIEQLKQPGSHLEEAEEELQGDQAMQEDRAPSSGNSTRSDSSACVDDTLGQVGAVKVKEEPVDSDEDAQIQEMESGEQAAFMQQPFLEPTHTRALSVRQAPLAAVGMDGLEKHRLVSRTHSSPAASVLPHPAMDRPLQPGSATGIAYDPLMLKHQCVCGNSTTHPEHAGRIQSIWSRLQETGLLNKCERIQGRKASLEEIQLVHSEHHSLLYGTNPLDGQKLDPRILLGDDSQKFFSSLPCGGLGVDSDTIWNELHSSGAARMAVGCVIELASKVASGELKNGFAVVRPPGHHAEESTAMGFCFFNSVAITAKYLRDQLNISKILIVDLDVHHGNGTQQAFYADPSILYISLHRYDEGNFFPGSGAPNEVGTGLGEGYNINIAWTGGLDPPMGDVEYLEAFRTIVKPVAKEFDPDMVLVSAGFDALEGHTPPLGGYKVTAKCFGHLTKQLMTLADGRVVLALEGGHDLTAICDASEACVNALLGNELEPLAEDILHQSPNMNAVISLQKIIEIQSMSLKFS

| inhibition [1] | inhibition [2] | IC50 [3] | IC50 [5] | Compound | inhibition [4] | inhibition [6] |
| --- | --- | --- | --- | --- | --- | --- |
| inactive | 69% | – | – | COC(=O)C(Cc1ccc(OCC=C(C)C)cc1)N(O)C(=O)/C(C)=N/O (stereo unspecified) | – | – |
| – | – | 7 µM | 7 µM | CC(C)=CCOc1ccc(C/C(=N\O)C(=O)NO)cc1 | Dose-dependent effect | Dose-dependent effect |
